Calls of active or inactive are those of the source.
Tests used:
HEK293 [1] = test: NOD1 signaling inhibitors, primary screen, cell-based, luminescence, uHTS (AID 1578); assay type: functional; conditions: Homo sapiens
HEK293 [2] = test: cells; assay type: functional, cell-based; conditions: Homo sapiens
HEK293 [3] = test: cells; assay type: functional, cell-based; conditions: Homo sapiens; remark: listed apart in the source
HEK293 [4] = test: NOD2 signaling inhibitors in MDP-stimulated cells, cell-based, uHTS, luminescence (AID 2001); assay type: functional; conditions: Homo sapiens
[5] = target: T1, Corticotropin-releasing factor receptor 2/Corticotropin-releasing factor-binding protein (Homo sapiens, UniProt P24387+Q13324); test: activators of CRF receptor 2 with binding protein – uHTS hits, confirmation (AID 602473); assay type: functional; conditions: read-out: EC50_Mean
T1 sequence (Q13324 whole entry): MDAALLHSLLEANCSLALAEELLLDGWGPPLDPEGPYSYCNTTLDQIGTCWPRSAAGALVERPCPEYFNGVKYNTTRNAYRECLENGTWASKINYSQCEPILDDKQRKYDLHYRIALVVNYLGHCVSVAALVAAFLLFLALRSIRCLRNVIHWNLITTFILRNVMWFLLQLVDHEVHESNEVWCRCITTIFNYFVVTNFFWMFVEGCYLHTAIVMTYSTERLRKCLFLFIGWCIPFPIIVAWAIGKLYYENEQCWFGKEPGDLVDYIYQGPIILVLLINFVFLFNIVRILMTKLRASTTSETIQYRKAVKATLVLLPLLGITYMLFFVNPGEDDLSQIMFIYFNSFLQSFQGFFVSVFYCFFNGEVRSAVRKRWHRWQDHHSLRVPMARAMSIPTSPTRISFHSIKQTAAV
T1 sequence (P24387 whole entry): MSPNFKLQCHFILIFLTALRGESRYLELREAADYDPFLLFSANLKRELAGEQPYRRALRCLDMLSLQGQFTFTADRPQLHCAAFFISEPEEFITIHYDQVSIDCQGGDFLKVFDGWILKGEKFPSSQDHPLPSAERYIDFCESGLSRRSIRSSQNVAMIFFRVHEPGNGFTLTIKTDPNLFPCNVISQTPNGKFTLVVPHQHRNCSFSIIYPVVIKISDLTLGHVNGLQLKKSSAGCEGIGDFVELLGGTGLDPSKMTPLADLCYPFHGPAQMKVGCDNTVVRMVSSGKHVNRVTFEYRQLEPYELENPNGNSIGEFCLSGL

[6] = target: T2, Short transient receptor potential channel 4 (Mus musculus, UniProt Q9QUQ5); test: mouse TRPC4 channel activators, dose response, cell-based, HEK293 TRPC4/mu-opioid, Fluo-4 calcium (AID 434937); assay type: functional
T2 sequence (Q9QUQ5 whole entry): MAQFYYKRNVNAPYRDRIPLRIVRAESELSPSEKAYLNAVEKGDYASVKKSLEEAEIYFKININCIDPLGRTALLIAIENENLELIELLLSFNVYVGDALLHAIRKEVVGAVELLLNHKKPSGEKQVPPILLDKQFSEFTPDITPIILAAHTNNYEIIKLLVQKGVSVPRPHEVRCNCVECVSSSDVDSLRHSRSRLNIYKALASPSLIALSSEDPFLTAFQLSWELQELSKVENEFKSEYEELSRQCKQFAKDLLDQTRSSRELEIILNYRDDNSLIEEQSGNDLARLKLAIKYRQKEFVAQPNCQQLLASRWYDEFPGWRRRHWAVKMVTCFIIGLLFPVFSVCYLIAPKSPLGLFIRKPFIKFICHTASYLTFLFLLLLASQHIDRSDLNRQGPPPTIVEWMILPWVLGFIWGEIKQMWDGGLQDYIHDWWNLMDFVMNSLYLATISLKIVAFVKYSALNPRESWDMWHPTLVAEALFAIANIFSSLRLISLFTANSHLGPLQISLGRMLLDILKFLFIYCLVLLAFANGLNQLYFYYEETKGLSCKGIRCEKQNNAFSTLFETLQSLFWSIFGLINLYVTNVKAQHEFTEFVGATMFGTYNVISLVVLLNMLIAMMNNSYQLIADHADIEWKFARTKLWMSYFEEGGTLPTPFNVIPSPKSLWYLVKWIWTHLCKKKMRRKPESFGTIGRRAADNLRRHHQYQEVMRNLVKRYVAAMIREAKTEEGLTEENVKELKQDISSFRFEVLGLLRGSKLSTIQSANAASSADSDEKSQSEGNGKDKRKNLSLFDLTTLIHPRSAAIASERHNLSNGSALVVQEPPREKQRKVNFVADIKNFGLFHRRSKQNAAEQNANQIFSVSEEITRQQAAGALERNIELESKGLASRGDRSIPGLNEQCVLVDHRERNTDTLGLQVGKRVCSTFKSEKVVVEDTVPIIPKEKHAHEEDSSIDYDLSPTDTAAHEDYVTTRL

Coagulation factor XII = target: T3, Coagulation factor XII (Homo sapiens, UniProt P00748); assay type: functional;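 note: activated factor XIIa alpha cleaving a fluorogenic AMC peptide substrate; inhibitor potency from loss of enzyme activity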
T3 sequence (P00748 whole entry): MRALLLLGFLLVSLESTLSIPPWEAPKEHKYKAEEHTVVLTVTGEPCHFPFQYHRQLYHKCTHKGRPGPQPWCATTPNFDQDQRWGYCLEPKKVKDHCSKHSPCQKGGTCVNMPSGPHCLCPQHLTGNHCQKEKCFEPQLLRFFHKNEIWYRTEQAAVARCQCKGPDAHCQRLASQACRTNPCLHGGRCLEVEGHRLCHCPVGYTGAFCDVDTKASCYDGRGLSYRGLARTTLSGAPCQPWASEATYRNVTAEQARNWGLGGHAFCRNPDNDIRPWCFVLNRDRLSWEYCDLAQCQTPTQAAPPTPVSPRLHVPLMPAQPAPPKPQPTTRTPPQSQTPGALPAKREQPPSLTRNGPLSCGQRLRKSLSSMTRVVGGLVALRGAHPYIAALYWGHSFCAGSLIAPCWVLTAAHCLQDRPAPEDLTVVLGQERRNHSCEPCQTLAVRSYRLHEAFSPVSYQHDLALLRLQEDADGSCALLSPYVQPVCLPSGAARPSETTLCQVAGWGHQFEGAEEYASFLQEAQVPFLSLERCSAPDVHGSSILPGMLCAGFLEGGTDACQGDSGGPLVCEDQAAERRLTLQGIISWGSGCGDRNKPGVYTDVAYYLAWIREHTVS

Protein skinhead-1 = target: T4, Protein skinhead-1 (Caenorhabditis elegans, UniProt P34707); assay type: functional
T4 sequence (P34707 whole entry): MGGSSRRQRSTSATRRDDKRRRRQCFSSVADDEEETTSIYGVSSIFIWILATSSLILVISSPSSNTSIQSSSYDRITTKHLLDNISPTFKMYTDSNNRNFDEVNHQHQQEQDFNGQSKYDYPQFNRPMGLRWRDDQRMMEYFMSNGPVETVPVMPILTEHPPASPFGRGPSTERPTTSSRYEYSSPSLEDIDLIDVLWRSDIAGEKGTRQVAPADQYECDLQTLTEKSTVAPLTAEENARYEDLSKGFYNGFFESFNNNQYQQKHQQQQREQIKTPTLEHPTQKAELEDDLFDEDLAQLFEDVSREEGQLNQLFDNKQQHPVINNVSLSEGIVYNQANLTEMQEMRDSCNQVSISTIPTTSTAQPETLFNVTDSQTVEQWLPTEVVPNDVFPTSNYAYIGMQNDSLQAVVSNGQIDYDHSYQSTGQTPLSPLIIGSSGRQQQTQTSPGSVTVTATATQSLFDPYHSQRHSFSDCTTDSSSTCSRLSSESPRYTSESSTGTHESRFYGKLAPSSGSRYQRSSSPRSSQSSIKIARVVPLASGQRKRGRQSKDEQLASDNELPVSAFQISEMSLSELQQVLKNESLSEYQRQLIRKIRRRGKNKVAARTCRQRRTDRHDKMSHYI

[7] = tested on: Streptococcus sp. 'group A'; test: growth inhibition of control SK(-) GAS strain, dose response, counter-screen for streptokinase expression inhibitor project, luminescence, kanamycin, BacTiterGlo, confirmation (AID 1900); assay type: functional, organism-based
Streptokinase A = target: T5, Streptokinase A (Streptococcus pyogenes serotype M1, UniProt P10520); test: S. pyogenes streptokinase expression inhibitors, potency, dose response, plasminogen activation absorbance, OD405 (AID 1914); assay type: functional, Streptococcus pyogenes M1 GAS;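 note: secreted streptokinase activity via plasminogen activation per viability signal from cell pellet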
T5 sequence (P10520 whole entry): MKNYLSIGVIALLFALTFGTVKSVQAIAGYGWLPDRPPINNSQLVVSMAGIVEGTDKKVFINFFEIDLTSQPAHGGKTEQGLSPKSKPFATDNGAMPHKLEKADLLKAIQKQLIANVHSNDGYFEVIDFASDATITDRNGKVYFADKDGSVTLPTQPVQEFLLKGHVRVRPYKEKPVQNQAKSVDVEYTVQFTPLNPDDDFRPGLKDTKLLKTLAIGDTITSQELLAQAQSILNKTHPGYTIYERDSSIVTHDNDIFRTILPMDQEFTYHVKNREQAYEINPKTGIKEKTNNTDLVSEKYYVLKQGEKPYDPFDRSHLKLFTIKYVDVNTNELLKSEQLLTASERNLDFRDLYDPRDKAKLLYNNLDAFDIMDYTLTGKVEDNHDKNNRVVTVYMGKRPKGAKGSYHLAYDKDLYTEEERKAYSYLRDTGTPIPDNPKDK

[8] = target: Luciferin 4-monooxygenase (Photinus pyralis, UniProt P08659); test: firefly luciferase enzyme inhibitors, dose response, biochemical, luminescence (AID 1891)
Sequence of Luciferin 4-monooxygenase (P08659 whole entry): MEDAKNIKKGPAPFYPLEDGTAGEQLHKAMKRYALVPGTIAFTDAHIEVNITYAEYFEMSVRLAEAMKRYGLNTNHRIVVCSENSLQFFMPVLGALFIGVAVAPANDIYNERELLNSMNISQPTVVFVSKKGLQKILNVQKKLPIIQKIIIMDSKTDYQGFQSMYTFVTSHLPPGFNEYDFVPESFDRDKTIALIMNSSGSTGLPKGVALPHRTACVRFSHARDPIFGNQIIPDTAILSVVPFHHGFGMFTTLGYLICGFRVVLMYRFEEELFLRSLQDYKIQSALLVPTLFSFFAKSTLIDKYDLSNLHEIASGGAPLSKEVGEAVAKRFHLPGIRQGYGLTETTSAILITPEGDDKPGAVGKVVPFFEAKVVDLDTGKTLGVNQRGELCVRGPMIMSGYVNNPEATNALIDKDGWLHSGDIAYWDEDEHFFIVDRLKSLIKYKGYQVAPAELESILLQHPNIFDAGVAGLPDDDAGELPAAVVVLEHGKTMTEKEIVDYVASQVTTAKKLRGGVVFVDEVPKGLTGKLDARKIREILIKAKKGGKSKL

[9] = Luminescence Cell-Based Dose Confirmation HTS to Identify Inhibitors of Platelet Dense Granule Release. [Related pubchem assays: 1663 (Primary HTS), 1678 (Summary of Project)]; assay type: functional
[10] = target: T6, Calpain-2 catalytic subunit (Sus scrofa, UniProt P43367); test: pig calpain II inhibitor potency, dose response, biochemical, fluorogenic peptide substrate (AID 1420); assay type: functional
T6 sequence (P43367 whole entry): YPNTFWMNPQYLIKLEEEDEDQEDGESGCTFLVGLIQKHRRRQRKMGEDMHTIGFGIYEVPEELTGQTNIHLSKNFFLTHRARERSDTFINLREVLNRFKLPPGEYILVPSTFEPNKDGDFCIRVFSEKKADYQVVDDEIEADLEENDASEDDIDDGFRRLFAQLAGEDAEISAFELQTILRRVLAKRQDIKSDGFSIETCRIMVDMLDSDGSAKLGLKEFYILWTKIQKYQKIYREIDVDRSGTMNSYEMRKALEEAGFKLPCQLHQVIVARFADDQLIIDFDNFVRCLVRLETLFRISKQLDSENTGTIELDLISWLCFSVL

Streptococcus = test: Group A Streptococcus viability loss, dose response, counter-screen for streptokinase expression inhibitor project, luminescence, BacTiterGlo (AID 1915); assay type: functional, organism-based;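 note: potency for reduction of bacterial viability or growth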

| Structure (SMILES) | EC50 (HEK293 [1]) | IC50 (HEK293 [2]) | IC50 (HEK293 [3]) | IC50 (HEK293 [4]) | EC50 [6] | further results |
| --- | --- | --- | --- | --- | --- | --- |
| Cc1ccc(O)c(C(=O)c2cc(C#N)c3nc4ccccc4n3c2)c1 | 3.28 µM (active) | 14.8 µM (active) | > 20 µM (inactive) | 10.2 µM (inactive) |  | EC50 [5]: 17.5 µM (active) |
| CN(CCc1ccccn1)C(=S)Nc1cccc(S(=O)(=O)N(C)C)c1 |  |  |  |  | 5.31 µM (active) |  |
| CCN1CCN(c2c(S(=O)(=O)c3ccc(C)c(C)c3)cnc3ccc(F)cc23)CC1 |  |  |  |  | 0.944 µM (active) |  |
| O=C(Oc1cncc(Cl)c1)c1ccco1 |  |  |  |  |  | IC50 (Coagulation factor XII): 1.39 µM (active); IC50 (Protein skinhead-1): > 100 µM (inactive) |
| CN(C)C(CNC(=O)CCc1c[nH]c2ccccc12)c1ccccc1 (stereo not given) |  |  |  |  | 0.0747 µM (active) |  |
| COCCCn1c(=O)/c(=C\c2ccccc2OC(C)C)s/c1=C(/C#N)C(=O)Nc1ccc(C(=O)O)cc1 |  |  |  |  |  | EC50 [7]: 1.44 µM (active); EC50 (Streptokinase A): > 150 µM (not active); EC50 [8]: > 112 µM (not active); EC50 [9]: > 112 µM (not active); IC50 [10]: 3.61 µM (not active); EC50 (Streptococcus): > 50 µM (not active); IC50 (Coagulation factor XII): > 50 µM (inactive) |
| S=C(Nc1ccc(Oc2ccccc2)cc1)N1CCN(c2ccccn2)CC1 | 9.44 µM (active) | 5.27 µM (active) | > 20 µM (inactive) | 6.67 µM (active) |  |  |
| CC(Sc1n[nH]c2c3ccccc3nc-2n1)C(=O)NC1CCCCC1 (stereo not given) | 4.88 µM (active) | 11.1 µM (active) | > 20 µM (inactive) | 9.89 µM (active) |  |  |
| CCOC(=O)C1=NN(C(=O)c2ccc(C)cc2)C(O)(c2ccc(Cl)cc2)C1 (stereo not given) |  |  |  |  | 9.44 µM (active) | EC50 [7]: 2.15 µM (active); EC50 (Streptokinase A): > 150 µM (not active); EC50 (Streptococcus): 8.19 µM (active) |
| CCCCC(c1nnnn1CC1CCCO1)N1CCN(c2nc3ccccc3s2)CC1 (stereo not given) |  |  |  |  | 1.06 µM (active) |  |

Source: ChEMBL document CHEMBL1201862, “PubChem BioAssay data set” (2004)
